Assay results taken from patent EP4692072A1, “PHOTOCHROMIC COMPOUND, PROPARGYL ALCOHOL COMPOUND, CURABLE COMPOSITION, OPTICAL ARTICLE, LENS, AND SPECTACLES” (TOKUYAMA CORPORATION, priority 2023, dated 2024).

Columns and labels:
[1] = Accelerated deterioration (xenon weather meter X25, 120 hours) of photochromic laminate prepared by coating method; format: physicochemical; settings: 0.25 mmol per 100 g monomers, A120/A0×100 after 120 hours xenon weather meter
Text: (§1) First, the photochromic compound obtained in Example 1, a photoinitiator, and a polymerizable compound were mixed to obtain a curable composition.
(§2) Polyethylene glycol dimethacrylate (average molecular weight: 736): 42 parts by mass • Polyethylene glycol dimethacrylate (average molecular weight: 536): 12 parts by mass • Trimethylolpropane trimethacrylate: 38 parts by mass γ-methacryloyloxypropyl trimethoxysilane: 2 parts by mass Glycidyl methacrylate: 1 part by mass
(§3) Note that the photochromic compound was added to the curable composition so that the amount of the photochromic compound was 0.25 mmol based on 100 g of the total amount of the radical-polymerizable monomers.
(§4) Phenylbis(2,4,6-trimethylbenzoyl)phosphine oxide (photoinitiator: Omnirad 819): 0.3 parts by mass Ethylene bis(oxyethylene) bis[3-(5-tert-butyl-4-hydroxy-m-tolyl)propionate] (stabilizer, Irganox 245): 1 part by mass Bis(1,2,2,6,6-pentamethyl-4-piperidyl) sebacate: 3 parts by mass Leveling agent (L7001) manufactured by Dow Corning Toray Co.,Ltd.: 0.1 part by mass
(§5) First, a thiourethane-based plastic lens having a central thickness of 2 mm and a refractive index of 1.60 was prepared as the optical substrate. Note that this thiourethane-based plastic lens was pre-treated by alkaline etching with a 10% sodium hydroxide aqueous solution at 50°C for 5 minutes, followed by sufficient washing with distilled water.
(§6) A surface of the above-described plastic lens was coated with a moisture-curable primer (product name: TR-SC-P, manufactured by Tokuyama Corporation) at a rotation frequency of 70 rpm for 15 seconds, followed by 1000 rpm for 10 seconds, using a spin coater (1H-DX2, manufactured by MIKASA CO., LTD), Subsequently, about 2 g of the photochromic curable composition obtained above was spin-coated at a rotation frequency of 60 rpm for 40 seconds, followed by 600 rpm for 10 to 20 seconds, to form a photochromic coating layer with a film thickness of 40 µm.
(§7) The lens with the surface coated with the photochromic curable composition (photochromic coating layer) was irradiated with light using a metal halide lamp with an output power of 200 mW/cm^2 in a nitrogen gas atmosphere for 90 seconds to cure the coating film. Subsequently, the lens was further heated at 110°C for 1 hour to prepare a photochromic laminate having a photochromic layer.
(§8) • [1] Maximum Absorption Wavelength (λmax): The maximum absorption wavelength after color development, measured using a spectrophotometer (instantaneous multichannel photodetector MCPD3000) manufactured by Otsuka Electronics Co., Ltd. was used as an indicator for the color tone during the color development. • [2] 23°C Color Optical Density (A23): A difference between an absorbancy measured after light irradiation at 23°C for 300 seconds {ε(300)} and an absorbancy without light irradiation ε(0) at the maximum absorption wavelength was used as an indicator for the color optical density. […] 23°C color fading half-life [τ1/2 (sec.)]: A time required for the absorbancy of the sample at the maximum absorption wavelength to decrease to 1/2 of {ε(300)-ε(0)} when the light irradiation was terminated after the light irradiation at 23°C for 300 seconds, was used as an indicator for the color fading speed. The shorter this time, the higher the color fading speed. • [4] Residual rate (A120/A0×100): The obtained photochromic plastic lens was subjected to accelerated deterioration using a xenon weather meter X25 manufactured by Suga Test Instruments Co., Ltd. for 120 hours. Subsequently, the color optical density was evaluated before and after the test, then a color optical density before the test (A0) and a color optical density after the test (A120) were measured, and a ratio (A120/A0) was defined as a residual rate. The residual rate was used as an indicator for a color developing durability. The higher the residual rate, the higher the color developing durability. […]

[2] = Photochromic properties of photochromic laminate (plastic lens) prepared by coating method; format: physicochemical; settings: 40 µm photochromic layer on thiourethane lens, 0.25 mmol compound per 100 g monomers, after color development
Text: as §1, §2, §3, §4, §5, §6, §7
In the same manner as in Example 26, photochromic laminates were prepared using the photochromic compounds obtained in Examples 2 to 25.
as §8, with “durability.” for “durability. The higher the residual rate, the higher the color developing durability.”

SMILES | Residual rate [1] [%] | Maximum absorption wavelength [2] [nm] | also measured
CCCCC1(CCCC)c2cc([Si](C)(c3ccccc3)c3ccccc3)ccc2-c2c1c1c(c3cc(OC)c(C)cc23)OC(c2ccc(C)cc2)(c2ccc(N(C)c3ccccc3)cc2)C=C1 (centres unmarked) [Example 15] | 58 | 487 | Maximum absorption wavelength ([2]; listed as Formula (75)): 602 nm
CCCCCCC1(CCCCCC)c2ccccc2-c2c1c1c(c3cc(OC)ccc23)OC(c2ccc(F)cc2)(c2ccc(N(CC)c3ccccc3)cc2)C=C1 (centres unmarked) [Example 4] | 57 | 489 | Maximum absorption wavelength ([2]; listed as Formula (48)): 601 nm
COCCCC1(CCCOC)c2cc(-c3ccc(C(C)(C)C)cc3)ccc2-c2c1c1c(c3cc(OC)c(OC)cc23)OC(c2ccc(N(CCOC)c3ccccc3)cc2)(c2ccc3c(c2)OCCO3)C=C1 (centres unmarked) [Example 20] | 67 | 486 | Residual rate ([1]; listed as Formula (81)): 63%; Maximum absorption wavelength ([2]; listed as Formula (81)): 608 nm
CCCOc1ccc(C2(c3ccc(N(CC(F)(F)F)c4ccccc4)cc3)C=Cc3c4c(c5cc(-c6ccc(OC)cc6)c(C)cc5c3O2)-c2ccc(C)cc2C4(CC)CC)cc1 (centres unmarked) [Example 17] | 56 | 484 | Maximum absorption wavelength ([2]; listed as Formula (78)): 592 nm
COc1ccc(C2(c3ccc(N(c4ccccc4)C4CCCCC4)cc3)C=Cc3c4c(c5cc(OC)c(OC)cc5c3O2)-c2ccccc2C4(CCCCF)CCCCF)cc1 (centres unmarked) [Example 6] | 70 | 481 | Residual rate ([1]; listed as Formula (53)): 63%; Maximum absorption wavelength ([2]; listed as Formula (53)): 593 nm
CCCc1ccc(C2(c3ccc(N(C)c4ccccc4)cc3)C=Cc3c4c(c5cc(-c6ccc(C)cc6)c(C)cc5c3O2)-c2ccccc2C4(CCOC)CCOC)cc1 (centres unmarked) [Example 18] | 60 | 587 | 
COc1cc2c3c(c4c(c2cc1OC)-c1ccc(-c2ccc(C(F)(F)F)cc2)cc1C4(CCCC(F)(F)F)CCCC(F)(F)F)C=CC(c1ccc(Oc2ccccc2)cc1)(c1ccc(N(C)c2ccccc2)cc1)O3 (centres unmarked) [Example 13] | 65 | 489 | Residual rate ([1]; listed as Formula (69)): 60%; Maximum absorption wavelength ([2]; listed as Formula (69)): 605 nm
CCCOc1ccc(C2(c3ccc(N(CC(F)(F)F)c4ccccc4)cc3)C=Cc3c4c(c5ccccc5c3O2)-c2ccccc2C42CCCCCCC2)cc1 (centres unmarked) [Example 9] | 62 | 578 | 
COc1ccc(C2(c3ccc(N(C)c4ccccc4)cc3)C=Cc3c4c(c5cc(-c6c(OC)cc(OC)cc6OC)c(OC)cc5c3O2)-c2ccc(C)cc2C4(CCCSC)CCCSC)cc1 (centres unmarked) [Example 12] | 65 | 478 | Maximum absorption wavelength ([2]; listed as Formula (66)): 614 nm

Second part, led by results:

Residual rate [1] [%] | Maximum absorption wavelength [2] [nm] | SMILES | also measured
67 | 501 | COc1ccc(C2(c3ccc(N(C)c4ccccc4)cc3)C=Cc3c4c(c5cc(-c6ccc(N7CCSCC7)cc6)c(OC)cc5c3O2)-c2ccc(OC)cc2C4(CCC(F)(F)F)CCC(F)(F)F)cc1 (centres unmarked) [Example 54] | Maximum absorption wavelength ([2]; listed as Formula (96)): 628 nm
68 | 530 | CCCC1(CCC)c2ccccc2-c2c1c1c(c3cc(OC)c(N(c4ccccc4)c4ccccc4)cc23)OC(c2ccc(C)cc2)(c2ccc(N(C)c3ccccc3)cc2)C=C1 (centres unmarked) [Example 22] | 
60 | 498 | COCCCCC1(CCCCOC)c2cc(-c3ccccc3)ccc2-c2c1c1c(c3cc(OC)c(N4CCS(=O)(=O)CC4)cc23)OC(c2ccc(OCCOCCOC)cc2)(c2ccc(N(C)c3ccccc3)cc2)C=C1 (centres unmarked) [Example 58] | Maximum absorption wavelength ([2]; listed as Formula (114)): 617 nm
59 | 487 | CCCc1ccc(C2(c3ccc(N(C)c4ccccc4)cc3)C=Cc3c4c(c5cc(OC)ccc5c3O2)-c2ccccc2C42CCCCCCC2)cc1 (centres unmarked) [Example 61] | Residual rate ([1]; listed as Formula (122)): 57%; Maximum absorption wavelength ([2]; listed as Formula (122)): 564 nm
58 | 488 | COc1ccc(C2(c3ccc(N(C)c4ccccc4)cc3)C=Cc3c4c(c5cc6c(cc5c3O2)SC(C)(C)S6)-c2ccc(-c3ccc(F)c(F)c3F)cc2C42CCCCCCCCCCC2)cc1 (centres unmarked) [Example 52] | Residual rate ([1]; listed as Formula (93)): 56%; Maximum absorption wavelength ([2]; listed as Formula (93)): 604 nm
